Measurements reported in a melting point compilation (Tetko et al.; mined from patent text by program, amines drawn as free bases though some values may be those of a salt).

Structure (SMILES)	melting point [°C]
Cc1cc2c(nc1C(O)c1cccc(Cl)c1)CCCCC2 (stereo not drawn)	123 to 125
O=C(Nc1ccc(-n2nc(C(F)(F)F)cc2C2CC2)cc1)c1c(F)cccc1F	188 to 191
CN(C)c1ccc(/C=C/c2cccc(F)c2)cc1	147 to 148
O=c1oc2ccccc2c(O)c1C(Sc1ccc(Cl)cc1)c1cc(F)ccc1F (stereo not drawn)	146 to 147
CCCCCCN1CCC(n2nc(-c3c(-c4ccccc4)nn4ccccc34)ccc2=O)CC1	106
C=CCNc1nc(NCC=C)c2cc(Cl)ccc2n1	78 to 79
CCc1cc(-c2cccnc2)nn1-c1ccc(NCc2ccc(OCCCC#N)cc2)cc1	131 to 132
Cc1nnc(CNC(=O)CNC(=O)CN)n1-c1ccc(Cl)cc1C(=O)c1ccccc1Cl	60 to 65
COC(=O)N1CCN(c2n[nH]c(-c3ccc(Cl)cc3)c2-c2ccncc2)CC1	264 to 265
CC1(C)COS(=O)Oc2ccc(C#N)cc21 (stereo not drawn)	87 to 88
CCc1nc2c(cnn2CC)c(NC2CCOCC2)c1CNC(=O)c1cccc(C(=O)NCc2ccc(Cl)c(-c3cccc(CN4CC5CC4CN5)c3)c2)c1 (stereo not drawn)	145 to 149
CC(=O)Nc1c(-c2c(F)cc(F)cc2F)c(Cl)nc2ncnn12	108 to 111
C[C@H]1[C@H](N)CN1c1c(F)c(N)c2c(=O)c(C(=O)O)cn(C3CC3)c2c1F (relative stereo)	206 to 210
COc1ccc(C(=C(c2ccc(OC)cc2)C(F)(F)F)c2ccc(F)cc2)cc1	75 to 77
CCCc1c(C(=O)C(C)C)c2ccc(CC(N)=O)cc2n1Cc1cc2c(cc1Cl)OCO2	136 to 138
Fc1ccc2[nH]cc(CCCCN3CCN(c4cccc(Cl)c4Cl)CC3)c2c1	147 to 148
CCc1nc(C2CC2)c[nH]1	104 to 106
C#CCn1cc(F)cnc1=O	107 to 108
NNC1=NC(=O)C(=Cc2cccc(-c3cc(F)c(O)c(C45CC6CC(CC(C6)C4)C5)c3)c2)S1	303 to 308
COC(=O)c1c(O)c2c([nH]c1=O)CCCCC2	> 255
O=S1(=O)c2cccc3cccc(c23)N1CCN1CCN(c2ccc(O)cc2)CC1	235
CCCCCCN(C)c1ccc(C=C2SC(=S)N(Cc3nnn[nH]3)C2=O)cc1	198 to 200
C#CCOc1cc(C2(C(F)(F)F)CC(=O)NC(OCC)=N2)c(F)cc1Br (stereo not drawn)	101 to 102
CCn1nc(C(F)(F)F)c(CS(=O)(=O)C2=NOC(C)(CCl)C2)c1Cl (stereo not drawn)	123 to 124
Cc1cc2c(cc1N)OCO2	88 to 89
CCC(O)c1ccc(-c2ccc(Cl)cc2)o1 (stereo not drawn)	74 to 75
Cc1ccc(S(=O)(=O)CCCCCC(C)(C(=O)OC(C)(C)C)C(=O)OC(C)(C)C)cc1	36.5 to 38.5

Structure (SMILES)	melting point [°C]
CCOC(=O)c1cn(C2CC2)c2c(C#N)c(Cl)c(F)cc2c1=O	162 to 165
Nc1cccc(C#Cc2ccc(OC3CN4CCC3CC4)nn2)c1 (stereo not drawn)	152 to 158
CCC12CCC3C4=C(CC(OC)=CC4)C(C)CC3C1CCC2=O (stereo not drawn)	118 to 125
CC1(C)CN(CCO)C(=O)C(C)(C)N1	91 to 93
CC(C)(C)c1cc(CCC(=O)NCCOC(=O)CCc2cc(C(C)(C)C)c(O)c(C(C)(C)C)c2)cc(C(C)(C)C)c1O	151 to 154
Cc1ccc(-c2c(C#N)nn(-c3c(Cl)cc(C(F)(F)F)cc3Cl)c2N)cc1	243 to 244
O=C(NCCCCO)c1c([N+](=O)[O-])ccc(N(CCBr)CCBr)c1[N+](=O)[O-]	114 to 117
O=C(c1ccc(F)cc1)c1ccc2[nH]c(=O)nc(-c3cccc(Cl)c3)c2c1	226
CS(=O)(=O)NC1CCC(=O)N2CCCC(C(=O)NC(CC(=O)O)C(=O)COc3cccnc3)N2C1=O (stereo not drawn)	120 to 125
Cc1c2c(c(C)c3c1OC(C)(CI)C3)N(C=O)C(C)(C)C2 (stereo not drawn)	124 to 126
N#Cc1cnc2c(c1)N(Cc1cc(F)ccc1F)CCN2	204 to 206
CCCCC(=O)Nc1cscc1N	110
Cc1cccc2nc3c(=O)[nH][nH]c(=O)c3c(O)c12	167 to 168
CCOc1cc(O)c2cc(F)c(F)c(F)c2n1	171
COCCOC[C@H](CC1(C(=O)N[C@H]2CC[C@@H](C(=O)O)CC2)CCCC1)C(=O)O	108
O=[N+]([O-])c1ccc2oc(CBr)cc2c1	96 to 98
Cc1c(C)c2c(c(C)c1N)C(c1ccc(C(C)C)cc1)C1(CCN(C)CC1)O2 (stereo not drawn)	123 to 124
COc1cc2c(Nc3ccc(Cl)cc3F)ncnc2cc1OCCn1ccccc1=O	209 to 211
COc1c(N2CC[C@H]([C@@H](C)NC(=O)OC(C)(C)C)C2)c(F)cc2c(=O)n(N)c(=O)n(C3CC3)c12	96 to 98
CCC(=O)c1cc(Cl)c(C)cc1OC	79
CCCCCCCCCCOCC(O)CO (stereo not drawn)	38.5 to 39
COC(=O)CS(=O)(=O)Nc1c(F)cc(F)cc1F	99 to 100
CC1Sc2c(C(=O)O)c(=O)c3cc(F)c(N4CCC(N(C)C)C4)c(Cl)c3n21 (stereo not drawn)	161 to 162
Cc1ccc(-c2ccc3c(c2)C=C(C(=O)Nc2ccc(CN4CCCCC4)cc2)CCC3)cc1	192 to 193
Nc1nc2cc(-c3ccc(C=C4SC(=O)NC4=O)cn3)cc(C34CC5CC(CC(C5)C3)C4)c2o1	> 360
CN1CC(CCn2ccnc2)Oc2ncccc2C1=O (stereo not drawn)	150 to 152
Cc1ccc(C(=O)Nc2ccc(CN3CCOCC3)c(C(F)(F)F)c2)cc1-c1ccc2cnncc2c1	147 to 151

The next lines start with the values.

melting point [°C]	Structure (SMILES)
146 to 147	COc1cc2nc(C)nc(N3CCN(C(=O)Nc4ccc(Oc5ccccc5)cc4)CC3)c2cc1OC
84 to 85	Cc1ccc2c(c1)c1c(n2C)CC(C(=O)O)CC1 (stereo not drawn)
89 to 96	Cc1noc(NS(=O)(=O)c2ccccc2-c2ccc(-c3ncco3)cc2CC(=O)N(C)C)c1C
108 to 110	O=C(CCCCCS(=O)c1ccc(-c2ccc(Cl)cc2)cc1)NO (stereo not drawn)
216 to 219	COc1cc(NS(=O)(=O)c2ccc(Cl)cc2)c(C(=O)Nc2ccc(S(=O)(=O)N3CCSCC3)cc2)cc1OC
159 to 160	c1ccc(CCNc2cc(-n3cccn3)nc(-c3cccs3)n2)nc1
296 to 298	CCNC(=O)Nc1nc2cc(-c3cccnc3)cc(N3CCC(O)C3)n2n1 (stereo not drawn)
138 to 141	CCCCOc1ccc(NC(=O)c2cnc(C(=O)OC)c(OC)c2)cc1
172 to 173	CCOC(=O)c1cc2c(nc(C)n2C)c2c1CCC(c1ccccc1)O2 (stereo not drawn)
236	CCCc1c(C(=O)O)cnc(C(F)(F)F)c1C(=O)O
85.5 to 86.1	CSc1cc(C(=O)c2cnoc2C2CC2)ccc1C
75 to 77	CCOC(=O)C(C#N)(CCCN(C)CCc1ccc(C(=O)OC)cc1)c1ccc(OC)c(OC)c1 (stereo not drawn)
89 to 91	c1ccc(CN(CCNC(c2ccccc2)c2ccccc2)Cc2ccccc2)cc1
310 to 320	Cc1cscc1NC(=S)Nc1cc(Cl)c(Cl)cc1N
259 to 260	Cc1sc(C(=O)O)cc1NC(=O)NCc1ccccc1
117 to 118	Cc1nc2c(NC(=O)C(C)(C)C)cccn2c1Cl
184	Fc1ccc(-c2csc(Nc3ccccc3C(F)(F)F)n2)cc1
80 to 82	COC(=O)c1ccccc1NC(=O)Cl
253 to 255	Cc1ccc(C)c(-c2c3ccccc3nc3ccc(NC(=O)c4ccccc4)cc23)c1
58 to 63	O=C(O)[C@@H]1CSCN1C(=O)OCc1ccccc1
128 to 129	CCOC(=O)COc1cc(F)c(C)cc1C(=O)NCc1ccc(Br)cc1F
134 to 140	COC(=O)C1=C(C)NC(C)=C(C(=O)OCCCCCCN2C(=O)c3ccccc3C2=O)C1c1cccc([N+](=O)[O-])c1 (stereo not drawn)

melting point [°C]	Structure (SMILES)
71 to 73	CCCCOC(=O)c1cc(NC(=O)C2=C(C)OCCS2)ccc1Cl
228 to 230	O=C(CCN1CCOCC1)NCc1ccc2c(c1)-c1[nH]nc(-c3ccsc3)c1C2
160 to 162	Cn1c(-c2ccccn2)cc2onc(-c3ccccc3)c2c1=O
71 to 73	COc1ccc(C=CC(=O)c2c(OC)cc(OC)cc2OP(=O)(O)O)cc1
65 to 70	Cc1ccccc1C(CCC(=O)O)Oc1cc(OCc2ccsc2)ccc1C(=O)C=Cc1ccccn1 (racemic)
154 to 157	CSC(=Nc1nc(C)cc(C)n1)NS(=O)(=O)c1ccccc1-c1ccccc1
115	O=C(O)COCCN(C1CC1)S(=O)(=O)c1ccccc1Cl
205	Cc1ccc2c(c1)C=Cc1cc(C)ccc1C2c1cn(-c2ccnc(NCC(=O)O)n2)c(=O)[nH]c1=S
119 to 121	COCC(=O)OCc1c(C)n(Cc2ccccc2)c2c(OCc3ccc(F)cc3)nncc12
203 to 206	COc1cc(C(=O)O)ccc1Cc1cn(C)c2ccc(NC(=O)NC3CCCC3)cc12
150 to 152	CC(C)NCC(O)COc1ccccc1-c1ccc(=O)[nH]n1 (stereo not drawn)
107 to 112	COC(=O)Nc1c(Cl)ccc(Br)c1F
281 to 282	Cc1cc(-c2ccc3c(=O)c(C(=O)O)cn(-c4ccc(F)cc4)c3c2)on1
115 to 118	O=C(O)c1cc(NC(=O)C(CS)Cc2cccnc2)cs1 (stereo not drawn)
142 to 146	CC(=O)c1cc2c(Br)cccc2n1S(=O)(=O)c1ccccc1
187 to 196	CCOc1ccc(N(C)C)cc1-c1ncc(C(=O)O)c(=O)[nH]1
216 to 217	O=c1[nH]c(-c2ccccn2)nnc1-c1ccc(Cl)cc1
61 to 62	O=C(NCCO[N+](=O)[O-])Oc1ccccc1
121 to 123	COC(=O)Cc1ccccc1Cc1ccccc1C(=O)O
208 to 209	COC(=O)c1cc(C(=O)NNC(C)=O)c2cc(Cc3ccc(F)cc3)cnc2c1O
74 to 77	CC(=O)c1ccc(OCCCCCCCCCCOc2ccccc2)o1
122	CN(C)c1cccc([N+](=O)[O-])c1C(=O)NC1CCN(C(c2ccccc2)c2ccccc2)CC1
